The text below walks through data of patent publication US20260232662A1, “MIR-124 INDUCER, AND PREPARATION METHOD THEREFOR AND USE THEREOF” (NANJING SYNNOCARE PHARMACEUTICAL TECHNOLOGY CO., LTD., priority 2023, published 2026).

The structures appear in SMILES notation.

This experiment relates to miR-124. Put plainly: Induction of miR-124 expression in PBMC cells (qPCR). In kind it is cell-based. The conditions noted are these: Homo sapiens, 72 h, 0.1 μM compound, human PBMCs stimulated with PMA/ionomycin, miR-191 reference gene, read-out: miR-124 expression, Fold change vs DMSO. The procedure:
This study evaluated the ability of the compound of the present invention to influence miR-124 transcriptional activity in vitro. The experiment analyzed miR-124 expression in human PBMCs (Sailybio) using quantitative PCR (qPCR).
Thawed human PBMCs (1 mL) were added to 19 mL of culture medium (RPMI1640+10% hFBS+1‰ 2-mercaptoethanol) and the PBMCs were incubated in a cell culture incubator for 30 minutes. The PBMCs were collected and the cells (3.0*10^6 cells/well/3 mL) were resuspended in medium containing PMA (10 ng/mL; Invivogen) and ionomycin (200 ng/mL; Invivogen). The cells were incubated in a 6-well plate for 48 hours. Diluted compound was added to the cells to achieve a final concentration of 0.1 μM. After 72 hours, the samples were centrifuged and the cells were collected.
Total miRNA was extracted from the cells using the MiPure Cell/Tissue miRNA Kit (Vazyme) according to the manufacturer's instructions, followed by purification. The purified samples were treated with genomic DNA elimination buffer, and reverse transcription was performed using a GeneAmp PCR System. The resulting cDNA was subjected to quantitative real-time PCR (qPCR) analysis on a QuantStudio™ 7 Flex Real-Time PCR System. Data analysis was performed using the QuantStudio 7 software with default settings to automatically determine Ct values, and the results were exported. In this assay, miR-191 was used as the reference gene, and the DMSO-treated group served as the control. The relative expression of miR-124 was calculated using the following formula: […]
A general note: In qPCR the cycle at which signal appears reflects the starting amount.
Consider `Fc1cc(NC2=Nc3cccc(Cl)c3N3CCN=C23)ccc1C(F)(F)F` [Compound B122, 9-chloro-N-(3-fluoro-4-(trifluoromethyl)phenyl)-1,2-dihydroimidazo[1,2-a] quinoxalin-4-amine], for which the fold induction at 0.1 µM turned out to be 27.3.

As for `FC1(F)Oc2ccc(Nc3nc4cccc(Cl)c4n4ccnc34)cc2O1` [Compound B52, 9-chloro-N-(2,2-difluorobenzo[d] [1,3]dihydroxy-5-yl) imidazolo[1,2-a]quinoxalin-4-amine], the fold induction at 0.1 µM amounted to 30.2.

With `Fc1ccc2nc(Nc3ccc(OC(F)(F)F)cc3)c3nccn3c2c1` [Compound B5, 8-fluoro-N-(4-(trifluoromethoxy)phenyl)imidazolo [1,2-a]quinoxalin-4-amine], the fold induction at 0.1 µM worked out at 31.3.

In the case of `FC(F)(F)c1ccc(Nc2nc3ccc(Cl)cc3n3ccnc23)cc1` [Compound B103, 8-chloro-N-(4-(trifluoromethyl)phenyl) imidazolo[1,2-a] quinoxalin-4-amine], the fold induction at 0.1 µM worked out at 25.5.

Regarding `Fc1cc(NC2=Nc3c(Cl)cccc3N3CCN=C23)ccc1C(F)(F)F` [Compound 69], the fold induction at 0.1 µM came to 22.9.

In the case of `FC(F)Oc1ccc(Nc2nc3c(Cl)cccc3n3ccnc23)cc1` [Compound 21], the fold induction at 0.1 µM is 15.5.

For the compound `FC1(F)Oc2ccc(Nc3nc4c(Cl)cccc4n4ccnc34)cc2C1(F)F` [Compound 40, 6-Chloro-N-(2,2,3,3-tetrafluoro-2,3-dihydrobenzofuran-5-yl) imidazolo [1,2-a] quinoxalin-4-amine], the fold induction at 0.1 µM is 17.5.

As to `Fc1cc(Cl)cc2c1nc(Nc1ccc(C(F)(F)F)cc1)c1nccn12` [Compound 58], the fold induction at 0.1 µM turned out to be 27.3.

As for `Fc1cc(Nc2nc3cc(Cl)ccc3n3ccnc23)ccc1C(F)(F)F` [Compound B110, 7-chloro-N-(3-fluoro-4-(trifluoromethyl)phenyl) imidazolo[1,2-a] quinoxalin-4-amine], the fold induction at 0.1 µM was 25.5.

For the compound `Fc1cc(Nc2nc3cc(Cl)ccc3n3ccnc23)ccc1OC(F)(F)F` [Compound B107, 7-chloro-N-(3-fluoro-4-(trifluoromethoxy)phenyl) imidazolo[1,2-a] quinoxalin-4-amine], the fold induction at 0.1 µM worked out at 24.4.

With `Fc1cccc2nc(Nc3ccc4c(c3)OC(F)(F)O4)c3nccn3c12` [Compound B75, 9-fluoro-N-(2,2-difluorobenzo[d] [1,3]dihydroxy-5-yl) imidazolo[1,2-a] quinoxalin-4-amine], the fold induction at 0.1 µM was 29.5.

Take `FC(F)(F)c1ccc(Nc2nc3cc(Cl)ccc3n3ccnc23)cc1Cl` [Compound B111, 7-chloro-N-(3-chloro-4-(trifluoromethyl)phenyl) imidazolo[1,2-a] quinoxalin-4-amine]: the fold induction at 0.1 µM came to 22.5.

As for `Cn1c(=O)c(Nc2ccc3c(c2)OC(F)(F)O3)nc2c(F)cc(Cl)cc21` [Compound 14], the fold induction at 0.1 µM came to 24.7.

In the case of `Fc1cc(Cl)cc2nc(Nc3ccc(OC(F)(F)F)cc3)c3nccn3c12` [Compound B31, 7-chloro-9-fluoro-N-(4-(trifluoromethoxy)phenyl)imidazolo [1,2-a]quinoxalin-4-amine], the fold induction at 0.1 µM is 24.4.

For the compound `Fc1cc(Cl)c2c(c1)nc(Nc1ccc(OC(F)(F)F)cc1)c1nccn12` [Compound B22, 9-chloro-7-fluoro-N-(4-(trifluoromethoxy)phenyl)imidazolo [1,2-a]quinoxalin-4-amine], the fold induction at 0.1 µM was determined as 32.5.

Take `Fc1cc(Br)cc2nc(Nc3ccc(OC(F)(F)F)cc3)c3nccn3c12` [Compound B32, 7-bromo-9-fluoro-N-(4-(trifluoromethoxy)phenyl)imidazolo [1,2-a]quinoxalin-4-amine]: the fold induction at 0.1 µM stood at 19.7.

`FC(F)(F)c1ccc(Nc2nc3cc(Cl)cc(Cl)c3n3ccnc23)cc1` [Compound B96, 7,9-dichloro-N-(4-(trifluoromethyl)phenyl) imidazolo[1,2-a] quinoxalin-4-amine]: the fold induction at 0.1 µM worked out at 23.2.

As for `FC1(F)Oc2ccc(Nc3nc4cc(Cl)ccc4n4ccnc34)cc2O1` [Compound B106, 7-chloro-N-(2,2-difluorobenzo[d] [1,3]dihydroxy-5-yl) imidazolo[1,2-a] quinoxalin-4-amine], the fold induction at 0.1 µM is 16.3.

As to `Fc1cc(NC2=Nc3cc(Cl)cc(Cl)c3N3CCN=C23)ccc1C(F)(F)F` [Compound B140, 7,9-dichloro-N-(3-fluoro-4-(trifluoromethyl)phenyl)-1,2-dihydroimidazo[1,2-a] quinoxalin-4-amine], the fold induction at 0.1 µM stood at 38.4.

On to `FC(F)(F)Oc1ccc(Nc2nc3cccc(Br)c3n3ccnc23)cc1` [Compound B3, 9-bromo-N-(4-(trifluoromethoxy)phenyl)imidazolo [1,2-a]quinoxalin-4-amine], for which the fold induction at 0.1 µM was 23.5.

Turning to `Fc1cc(Cl)cc2c1nc(Nc1ccc3c(c1)OC(F)(F)O3)c1nccn12` [Compound 55], the fold induction at 0.1 µM was found to be 22.3.

For `Fc1cc(NC2=Nc3cc(Cl)cc(F)c3N3CCN=C23)ccc1OC(F)(F)F` [Compound B131, 7-chloro-9-fluoro-N-(3-fluoro-4-(trifluoromethoxy)phenyl)-1,2-dihydroimidazo[1,2-a] quinoxalin-4-amine], the fold induction at 0.1 µM worked out at 27.

Take `Fc1cc(Cl)cc2nc(Nc3ccc(C(F)(F)F)cc3)c3nccn3c12` [Compound B90, 7-chloro-9-fluoro-N-(4-(trifluoromethyl)phenyl) imidazolo[1,2-a] quinoxalin-4-amine]: the fold induction at 0.1 µM came out at 24.9.

Take `FC(F)(F)Sc1ccc(Nc2nc3cccc(Cl)c3n3ccnc23)cc1` [Compound B50, 9-chloro-N-(4-(trifluoromethylthio)phenyl)imidazolo [1,2-a]quinoxalin-4-amine]: the fold induction at 0.1 µM worked out at 21.3.

Take `Fc1cc(Nc2nc3cc(Cl)cc(F)c3n3ccnc23)ccc1OC(F)(F)F` [Compound B88, 7-chloro-9-fluoro-N-(3-fluoro-4-(trifluoromethoxy)phenyl) imidazolo[1,2-a] quinoxalin-4-amine]: the fold induction at 0.1 µM came to 20.1.

With `Fc1cc(Cl)cc2c1N1CCN=C1C(Nc1ccc(OC(F)(F)F)c(Cl)c1)=N2` [Compound B132, 7-chloro-N-(3-chloro-4-(trifluoromethoxy)phenyl)-9-fluoro-1,2-dihydroimidazo[1,2-a] quinoxalin-4-amine], the fold induction at 0.1 µM worked out at 27.6.

For `Cn1c(=O)c(Nc2ccc(OC(F)(F)F)cc2)nc2c(F)cc(Cl)cc21` [Compound 13], the fold induction at 0.1 µM came out at 20.9.

On to `Cn1c(=O)c(Nc2ccc(SC(F)(F)F)cc2)nc2c(Cl)cccc21` [Compound 10], for which the fold induction at 0.1 µM came to 15.4.

Consider `Fc1cc(NC2=Nc3ccc(Cl)cc3N3CCN=C23)ccc1C(F)(F)F` [Compound B146, 8-chloro-N-(3-Fluoro-4-(trifluoromethyl)phenyl)-1,2-dihydroimidazo[1,2-a] quinoxalin-4-amine], for which the fold induction at 0.1 µM is 28.7.

Turning to `Fc1cc(Nc2nc3c(Cl)cccc3n3ccnc23)ccc1C(F)(F)F` [Compound 28], the fold induction at 0.1 µM is 10.4.

For the compound `Fc1cccc2nc(Nc3ccc(C(F)(F)F)c(Cl)c3)c3nccn3c12` [Compound B80, 9-fluoro-N-(3-chloro-4-(trifluoromethyl)phenyl) imidazolo[1,2-a] quinoxalin-4-amine], the fold induction at 0.1 µM is 17.2.

With `FC(F)(F)Oc1ccc(NC2=Nc3c(Cl)cc(Cl)cc3N3CCN=C23)cc1` [Compound 85], the fold induction at 0.1 µM stood at 10.4.

Take `Fc1cc(Cl)cc2c1nc(Nc1ccc(OC(F)(F)F)cc1)c1nccn12` [Compound 54]: the fold induction at 0.1 µM was 14.9.

Turning to `FC1(F)Oc2ccc(Nc3nc4ccc(Cl)cc4n4ccnc34)cc2O1` [Compound B100, 8-chloro-N-(2,2-difluorobenzo [d][1,3]dihydroxy-5-yl) imidazolo[1,2-a] quinoxalin-4-amine], the fold induction at 0.1 µM amounted to 19.6.

Regarding `Fc1cc(Nc2nc3c(Br)cccc3n3ccnc23)ccc1C(F)(F)F` [Compound 52], the fold induction at 0.1 µM was found to be 22.3.

As to `Fc1cccc2nc(Nc3ccc(OC(F)(F)F)c(Cl)c3)c3nccn3c12` [Compound B77, 9-fluoro-N-(3-chloro-4-(trifluoromethoxy)phenyl) imidazolo[1,2-a]quinoxalin-4-amine], the fold induction at 0.1 µM turned out to be 23.1.

As to `Fc1cc(Cl)cc2c1N=C(Nc1ccc(C(F)(F)F)cc1)C1=NCCN12` [Compound 95], the fold induction at 0.1 µM worked out at 27.

On to `FS(F)(F)(F)(F)c1ccc(Nc2nc3cccc(Cl)c3n3ccnc23)cc1` [Compound B60, 9-chloro-N-(4-(thiopentafluoride)phenyl)imidazolo[1,2-a]quinoxalin-4-amine], for which the fold induction at 0.1 µM stood at 24.8.

As to `FC1(F)Oc2ccc(Nc3nc4cc(Cl)cc(Cl)c4n4ccnc34)cc2O1` [Compound B93, 7,9-dichloro-N-(2,2-difluorobenzo [d][1,3]dihydroxy-5-yl) imidazolo[1,2-a] quinoxalin-4-amine], the fold induction at 0.1 µM turned out to be 19.1.

In the case of `FC(F)(F)Sc1ccc(Nc2nc3c(Cl)cccc3n3ccnc23)cc1` [Compound 15], the fold induction at 0.1 µM worked out at 12.7.

On to `Fc1cc(Nc2nc3c(Cl)cc(Cl)cc3n3ccnc23)ccc1C(F)(F)F` [Compound 63], for which the fold induction at 0.1 µM was 18.4.
